Experimental findings from ChEMBL document CHEMBL1151551, “An acid-cleavable linker stable at neutral pH that releases doxorubicin at lysosomal pH” (Bioorg Med Chem Lett, 1993) are described below.

For data set [1], the species on record is Mus musculus. The data set is described as follows: The compound was evaluated for half life (release of DOX) […] at 37 degree Celsius at the pH 5. Format: ADME.
The species entered for data set [2] is Mus musculus. Kind of data set: The compound was evaluated for half life (release of DOX) […] at 37 degree Celsius at the pH 7. Format: ADME.

Turning to `CCCCN(C)C(=O)C1(C)CC(C)(C(=O)O)CC(C)(C(=O)N(C(=O)C(F)(F)F)C2CC(O[C@H]3C[C@](O)(C(=O)CO)Cc4c(O)c5c(c(O)c43)C(=O)c3c(OC)cccc3C5=O)OC(C)C2O)C1` (some centres not stated), the T1/2 in the data set filed under Mus musculus [1] is above 174 h; in the data set listed under Mus musculus [2] it was above 174 days.
As for `COC(=O)C1(C)CC(C)(C(=O)O)CC(C)(C(=O)NC2CC(O[C@H]3C[C@](O)(C(=O)CO)Cc4c(O)c5c(c(O)c43)C(=O)c3c(OC)cccc3C5=O)OC(C)C2O)C1` (some centres not stated), the figures for the T1/2 in the data set filed under Mus musculus [1] and in the data set filed under Mus musculus [2] were 40 h and above 100 days, respectively.
On to `CCCCNC(=O)C1(C)CC(C)(C(=O)O)CC(C)(C(=O)NC2CC(O[C@H]3C[C@](O)(C(=O)CO)Cc4c(O)c5c(c(O)c43)C(=O)c3c(OC)cccc3C5=O)OC(C)C2O)C1` (some centres not stated), for which the T1/2 in the data set filed under Mus musculus [1] was 90 h; in the data set filed under Mus musculus [2], above 160 days.
With `COc1cccc2c1C(=O)c1c(O)c3c(c(O)c1C2=O)C[C@@](O)(C(=O)CO)C[C@@H]3OC1CC(NC(=O)C2(C)CC(C)(C(=O)O)CC(C)(C(=O)O)C2)C(O)C(C)O1` (some centres not stated), in the data set filed under Mus musculus [1], the T1/2 is 30 h.
